Key:
Assay type in all cases: in vivo, mice
[1] = system: ovalbumin-specific TCR transgenic T cells (OT-1); experiment: B16 ovalbumin model: tracking of ovalbumin-specific TCR transgenic T cells (OT-1); conditions: data not shown
Source text: B16.ova and B16.GM.ova tumors are B16 cells or B16 cells expressing GM-CSF that were modified to express membrane bound ovalbumin. Ovalbumin acts as a surrogate tumor associated antigen on the tumor cells used for challenge as well as on the vaccine cells. Ovalbumin-specific T cells are used to track “tumor specific” T cell responses in the presence or absence of cells expressing GM-CSF (B16.GM-ova) alone or in combination with another cancer therapeutic agent. An antibody specifically recognizing the T-cell receptor of the ovalbumin specific T-cells is used to follow these “tumor-specific” T-cells. This antibody can be used to monitor the expansion of these tumor-specific T-cells and their activation status following various vaccination regiments. In one exemplary experimental approach, mice received via adoptive transfer ovalbumin-specific T-cells on day −2, are challenged with B16F10.ova on day 0, are vaccinated with B16F10.GM-ova on day 3 and then treated with at least one additional cancer therapeutic agent such as taxotere on day 5 and 9 (6 mg/kg), followed by monitoring of OVA-specific T cells at various time points after vaccination.

B16 tumor = experiment: B16 melanoma model: B16-GM vaccine plus docetaxel
Method: FIG. 8A illustrates the results of a study in the B16F10 melanoma model wherein the effect of 3 IV injections of docetaxel (total dose 18 mg/kg) administered on days 5, 9, and 13 was evaluated with respect to the percentage of mice that survived.
FIG. 8B illustrates the study carried out to generate the data shown in FIGS. 8C and D. The study was performed in the B16F10 melanoma model and compared the efficacy of one cycle of a GM-CSF secreting tumor cell vaccine administration combined with one cycle of Taxotere administration to three cycles of vaccine plus three cycles of taxotere.
FIGS. 8C and 8D illustrate the results of a study in the B16F10 melanoma model (carried out as described in FIG. 8B) wherein the effect of a cytokine-expressing cellular vaccine was evaluated in combination with docetaxel (total dose 18 mg/kg) administered on days 5, 9, and 13. Administration of docetaxel given between bi-weekly vaccinations (three vaccinations total; three cycles) increased the median survival of B16 tumor-bearing mice from 31 days to 52 days when compared to three B16-GM vaccinations alone. […]
The combination of docetaxel and a GM-CSF-secreting B16F10 tumor cell (B16-GM) vaccine was evaluated in the B16 melanoma model. […]

B16F10 = B16F10 model: B16-GM vaccine plus Celebrex; conditions: single agent; preliminary results
Method: FIGS. 9A and 9B illustrate the results of a study in the B16F10 melanoma model wherein the effect of a cytokine-expressing cellular vaccine was evaluated in combination with Celebrex (Celecoxib: 50 mg/kg/day in the feed starting on Day −7). Mice were challenged on Day 0 with 1×10^5 live B16F10 cells at a dorsal location and were vaccinated on Day 3 with 1×10^6 irradiated dB16gmtd cells at a ventral location.

| SMILES | survival of ovalbumin-specific TCR transgenic T cells (OT-1) [1] | inhibiting B16 tumor growth (B16 tumor; monotherapy, three IV injections, total dose 18 mg/kg) | Median Survival (B16 tumor; one cycle: vaccine three days after challenge, docetaxel IV days 5, 9, 13 (total 18 mg/kg)) [days] | effect on B16F10 tumor size and overall survival (B16F10) |
| --- | --- | --- | --- | --- |
| CC(=O)O[C@@]12CO[C@@H]1C[C@H](O)[C@@]1(C)C(=O)[C@H](O)C3=C(C)[C@@H](OC(=O)[C@H](O)[C@@H](NC(=O)OC(C)(C)C)c4ccccc4)C[C@@](O)([C@@H](OC(=O)c4ccccc4)[C@H]21)C3(C)C [docetaxel] | prolongs | ineffective | 24 | – |
| Cc1ccc(-c2cc(C(F)(F)F)nn2-c2ccc(S(N)(=O)=O)cc2)cc1 [Celebrex, Celecoxib] | – | – | – | no effect |

Source: patent US20120034242A1, “CYTOKINE-EXPRESSING CELLULAR VACCINE COMBINATIONS” (BIOSANTE PHARMACEUTICALS, INC., priority 2003, published 2012)
